Measured values taken from US20130272962A1, “STAINING AGENT FOR CORNEAL STAINING” (FLUORON GMBH, priority 2012, published 2013).

Assays:
[1] = Staining of ophthalmic membranes
[2] = Solubility of the dyestuff in liquids for application in the eye; type: physicochemical; conditions: for solubility in liquids suitable for application in the anterior and posterior region of the eye: balanced salt solution (BSS), water for injection; for solubility in liquids that are heavier than water: ≧1.01 g/cm^3, e.g. polyethylene glycol
cornea = conditions: Ünlü et al. 2000; Gamal Eldin et al. 1999; cited from earlier work
eukaryotes = conditions: cited from earlier work
[3] = tested on: Human Retinal Pigment Epithelium in Vitro; conditions: Wu et al. 2005; cited from earlier work
[4] = Ito et al. 2004; cited from earlier work
[5] = tested on: Human Corneal Epithelial Cells; conditions: intensified by interaction with light; Kim et al. 1999; cited from earlier work
[6] = Cahen 1964; product information BLURHEX; cited from earlier work
[7] = tested on: Human Retinal Pigment Epithelial Cells; conditions: Veckeneer et al. 2002 (rabbit eyes); Rezai et al. 2004; cited from earlier work

SMILES: CCN(CC)c1ccc(C(=C2C=CC(=[N+](CC)Cc3cccc(S(=O)(=O)[O-])c3)C=C2)c2ccc(N(CC)Cc3cccc(S(=O)(=O)O)c3)cc2)cc1 [Acid Violet 17]
- coloring of the inner limiting membrane (ILM) and the anterior and posterior lens capsules [1]: capable of coloring both the inner limiting membrane (ILM) and the anterior and posterior lens capsules
- staining of the cornea or constituents thereof [1]: capable of staining the cornea or constituents thereof
- solubility in liquids suitable for application in the anterior and posterior region of the eye [2]: very readily soluble
- solubility in liquids that are heavier than water [2]: very readily soluble

SMILES: CCOc1ccc(Nc2ccc(/C(=C3C=C/C(=[N+](/CC)Cc4cccc(S(=O)(=O)[O-])c4)C=C/3C)c3ccc(N(CC)Cc4cccc(S(=O)(=O)[O-])c4)cc3C)cc2)cc1.[Na+] [BBG, Brilliant Blue G]
- coloring of the inner limiting membrane (ILM) and the anterior and posterior lens capsules [1]: capable of coloring both the inner limiting membrane (ILM) and the anterior and posterior lens capsules
- staining of the cornea or constituents thereof [1]: capable of staining the cornea or constituents thereof
- solubility in liquids suitable for application in the anterior and posterior region of the eye [2]: very readily soluble
- solubility in liquids that are heavier than water [2]: very readily soluble

SMILES: CN(C)c1ccc(C(=C2C=CC(=[N+](C)C)C=C2)c2ccc(N(C)C)cc2)cc1 [Gentian violet]
- corneal oedema (cornea): cause corneal oedemas

SMILES: [2H]O[2H] [Heavy water, D2O]
- concentration in water tolerated by eukaryotes (eukaryotes): ≤ 20%

SMILES: CC1(C)C(/C=C/C=C/C=C/C=C2\N(CCCCS(=O)(=O)O)c3ccc4ccccc4c3C2(C)C)=[N+](CCCCS(=O)(=O)[O-])c2ccc3ccccc3c21 [ICG, indocyanine green]
- phototoxicity [3]: phototoxic
- cytotoxicity [4]: cytotoxic

SMILES: O=C([O-])c1c(Cl)c(Cl)c(Cl)c(Cl)c1-c1c2cc(I)c(=O)c(I)c-2oc2c(I)c([O-])c(I)cc12.[Na+].[Na+] [Rose bengal]
- cytotoxicity [5]: cytotoxic

SMILES: Cc1cc(-c2ccc(/N=N/c3c(S(=O)(=O)O)cc4cc(S(=O)(=O)O)cc(N)c4c3O)c(C)c2)ccc1/N=N/c1c(S(=O)(=O)O)cc2cc(S(=O)(=O)O)cc(N)c2c1O [trypan blue]
- teratogenic or mutagenic effect [6]: teratogenic or mutagenic effect
- cytotoxicity [7]: cytotoxic
